Values joined by “and” are separate entries in the source; they are usually repeats but may differ in a detail not shown here. Equal values may be shown once. Marks after values point to notes of the source that are not given here.
Assays:
[1] = system: Swiss albino mice; experiment: Acetic acid-induced writhing test; type: in vivo; settings: for % analgesic activity (writhing inhibition) / Mean writhes: dose 10 mg/kg, oral; for Mean writhes: writhes counted 5-30 min after acetic acid, 10 mg/kg
Procedure: An anti-nociceptive assessment was performed on Swiss albino mice of both sexes, sourced from the National Institute of Health, Islamabad, Pakistan. […] Mice of either sex were divided into different groups, with five mice in each group. The test samples were carefully administered orally, with doses of 250, 500, 1000, and 2000 mg/kg.
I. rugosus was evaluated for its analgesic potential through an acetic acid-induced writhing test. Oral administration of the test samples was carried out using specified doses. After 30 min of interval, 10 ml/kg of acetic acid (0.6%) was injected into the mice. Group I served as the control and received 0.5% Tween-80 (3 ml/kg), group II received diclofenac sodium (10 mg/kg), and groups III and IV received test compounds. The count of writhes was recorded between 5 and 30 min, following the i/p injection of acetic acid ([Franzotti et al., 2000]).

[2] = system: mice; experiment: Carrageenan-induced paw edema; type: in vivo; settings: for % edema volume inhibition (mean): aspirin 10 mg/kg; for Paw edema percent inhibition, individual values / Paw edema, individual values: single animals
Procedure: The animals under study were divided into different groups. Prior to the experiment, the animals had only access to water. […] Additionally, the isolated compounds being tested were given 30 min before injecting 0.05 ml of 1% carrageenan into the sub-plantar region of the paw. To measure the volume changes in the paw, a digital plethysmometer was employed. Readings were taken before and after the carrageenan injection at hourly intervals over a total period of 5 h.

[3] = system: Swiss albino mice; experiment: Hot plate test, involvement of adrenergic receptors; type: in vivo; settings: single animals
Procedure: The analgesic effects of the isolated compounds were measured using the hot plate method at a monitored temperature of 55 ± 0.2°C. The Swiss albino mice were positioned on the heated surface of the hot plate, and the period from placement to the onset of licking their hind paws or starting jump movements was noted as the response latency (thermal reactions). The test compounds were injected intraperitoneally. […] The animal models were checked for thermal reactions at various time intervals after sample administration.
The outcomes of the positive control and tested compounds were compared in animals pretreated with yohimbine. […] Additionally, clonidine at a dose of 3 μg/kg was intravenously administered. The animals were then subjected to the hot plate method, as reported before.

[4] = biological target: T1, 5-LOX (Glycine max, UniProt P08170); experiment: Lipoxygenase (5-LOX) inhibitory activity; type: biochemical
T1 sequence (P08170 1-839): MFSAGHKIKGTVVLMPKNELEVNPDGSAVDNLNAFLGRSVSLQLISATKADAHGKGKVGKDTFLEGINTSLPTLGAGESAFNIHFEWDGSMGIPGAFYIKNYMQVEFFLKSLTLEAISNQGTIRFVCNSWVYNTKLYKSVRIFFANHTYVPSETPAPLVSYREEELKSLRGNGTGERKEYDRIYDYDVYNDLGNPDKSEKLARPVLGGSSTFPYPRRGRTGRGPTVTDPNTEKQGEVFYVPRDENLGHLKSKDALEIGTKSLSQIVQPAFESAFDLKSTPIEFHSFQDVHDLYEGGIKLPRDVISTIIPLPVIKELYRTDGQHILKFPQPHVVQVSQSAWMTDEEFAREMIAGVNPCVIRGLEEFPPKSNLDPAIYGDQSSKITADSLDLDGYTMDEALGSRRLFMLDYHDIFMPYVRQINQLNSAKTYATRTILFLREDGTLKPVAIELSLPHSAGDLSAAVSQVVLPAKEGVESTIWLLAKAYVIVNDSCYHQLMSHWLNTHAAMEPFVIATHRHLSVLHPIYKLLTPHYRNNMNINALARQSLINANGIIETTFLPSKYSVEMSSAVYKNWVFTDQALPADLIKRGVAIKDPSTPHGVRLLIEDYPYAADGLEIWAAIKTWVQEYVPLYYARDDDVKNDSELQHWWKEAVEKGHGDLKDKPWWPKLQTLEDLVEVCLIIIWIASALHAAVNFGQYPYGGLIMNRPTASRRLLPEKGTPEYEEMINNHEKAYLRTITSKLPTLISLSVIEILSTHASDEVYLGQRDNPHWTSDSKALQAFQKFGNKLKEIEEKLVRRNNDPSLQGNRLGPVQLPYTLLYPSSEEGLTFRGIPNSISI
Procedure: The enzyme solution with a concentration of 10,000 U/ml was prepared. […] A solution (80 mM) of linoleic acid (substrate) was made. Likewise, a 50 mM phosphate buffer solution with a pH of 6.3 was prepared. The substrate, enzyme, and buffer were combined in equal proportions, each in a 2 ml volume. […] The inhibition percentage was determined by comparing the absorbance of the test samples with that of the positive control.

O=C(O)Cc1ccccc1Nc1c(Cl)cccc1Cl [Positive control, diclofenac sodium, reference compound]
Writhes, individual values ([1]; 10mg, single animals): 16.1 and 17.8 and 15.6
% analgesic activity (writhing inhibition) [1]: 73.02^*** %
% analgesic activity (writhing inhibition) ([1]; listed as positive control): 73.02%
Mean writhes [1]: 16.5 ± 0.76
Mean writhes ([1]; listed as Positive Control): 16.5

CC(=O)Oc1ccccc1C(=O)O [Aspirin, aspirin, reference compound]
% edema volume inhibition (mean) ([2]; 1st hour after carrageenan): 51.772%
% edema volume inhibition (mean) ([2]; 1st hour after carrageenan, listed as aspirin): 51.77 ± 0.10%
% edema volume inhibition (mean) ([2]; 2nd hour after carrageenan): 56.106%
% edema volume inhibition (mean) ([2]; 3rd hour after carrageenan): 57.334%
% edema volume inhibition (mean) ([2]; 4th hour after carrageenan): 60.956%
% edema volume inhibition (mean) ([2]; 5th hour after carrageenan): 57.694%
% edema volume inhibition (mean) ([2]; 5th hour after carrageenan, listed as aspirin): 57.77 ± 0.40%
Paw edema percent inhibition, individual values ([2]; hour 1): 52.34% and 51.04% and 52.35% and 51.83% and 51.3%
Paw edema, individual values ([2]; hour 1): 0.362 and 0.375 and 0.365 and 0.369 and 0.373
Paw edema percent inhibition, individual values ([2]; hour 2): 59.13% and 52.65% and 58.06% and 56.7% and 53.99%
Paw edema, individual values ([2]; hour 2): 0.302 and 0.349 and 0.31 and 0.32 and 0.34
Paw edema percent inhibition, individual values ([2]; hour 3): 59.52% and 56.85% and 58.59% and 57.12% and 54.59%
Paw edema, individual values ([2]; hour 3): 0.304 and 0.322 and 0.311 and 0.341
Paw edema percent inhibition, individual values ([2]; hour 4): 63.3% and 60.42% and 61.07% and 60.88% and 59.11%
Paw edema, individual values ([2]; hour 4): 0.275 and 0.301 and 0.297 and 0.312
Paw edema percent inhibition, individual values ([2]; hour 5): 59.25% and 55.95% and 53.49% and 59.23% and 60.55%
Paw edema, individual values ([2]; hour 5): 0.298 and 0.322 and 0.34 and 0.289

Clc1cccc(Cl)c1N=C1NCCN1 [Clonidine, reference compound]
Hot plate analysis (adrenergic), individual values ([3]; 30 Minutes): 9.56 and 8.88 and 10.88
Hot plate analysis (adrenergic), individual values ([3]; 45 Minutes): 10.6 and 9.32 and 10.99
Hot plate analysis (adrenergic), individual values ([3]; 15 minutes): 9.26 and 10.12 and 10.98
Hot plate analysis (adrenergic), individual values ([3]; 60 minutes): 8.2 and 10.01 and 7.59
Hot plate analysis (adrenergic), individual values ([3]; 90 minutes): 8.4 and 10.26 and 9.3

CC(c1cc2ccccc2s1)N(O)C(N)=O (stereo not shown) [Zileuton, reference compound]
inhibition at 62.5 µg/mL ([4]; read-out: % inhibition 5-LOX (mean ± SEM), 62.5 µg/ml): 79.8 ± 0.37%
inhibition at 250 µg/mL ([4]; read-out: % inhibition 5-LOX (mean ± SEM), 250 µg/ml): 88.98 ± 0.85%
inhibition at 500 µg/mL ([4]; read-out: % inhibition 5-LOX (mean ± SEM), 500 µg/ml): 92.22 ± 0.11%
inhibition at 1000 µg/mL ([4]; read-out: % inhibition 5-LOX (mean ± SEM), 1000 µg/ml): 95.2 ± 0.15%
